# Experiments:
# Test in all cases: COMPOUND A In Vitro Assay
# Assay type in all cases: cell-based
# MKN-1 = details: Homo sapiens, Muscle, smooth, stomach, TP53 Mutant
# How it was run: (§1)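 Cell lines from a broad panel of human tumour types were treated with the MDM2 antagonist RG7112 in high-throughput screens to derive IC50 values. Lines with IC50<=1 were called sensitive, and those with IC50>=10 resistant.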
# KYSE-150 = details: Homo sapiens, Esophagus, TP53 Mutant
# How it was run: as §1
# PC-13 = details: Homo sapiens, Lung, TP53 Mutant
# How it was run: as §1
# NCI-H508 = details: Homo sapiens, Intestine, large, caecum, TP53 Mutant
# How it was run: as §1
# NCCIT = details: Homo sapiens, Germ cell, gametocyte, TP53 Mutant
# How it was run: as §1
# NCI-H28 = details: Homo sapiens
# How it was run: as §1
# HCC1954 = details: Homo sapiens, Breast, mammary gland, TP53 Mutant
# How it was run: as §1
# KARPAS-299 = details: Homo sapiens, Blood, TP53 Mutant
# How it was run: as §1
# NCI-H1666 = details: Homo sapiens, Lung, TP53 Wild type
# How it was run: as §1
# NCI-H1944 = details: Homo sapiens, Lung, TP53 Wild type
# How it was run: as §1
# KMS-34 = details: Homo sapiens, Lymphocyte, TP53 Mutant
# How it was run: as §1
# NCI-H1650 = details: Homo sapiens, Lung, TP53 Mutant
# How it was run: as §1
# NCI-H661 = details: Homo sapiens, Lung, TP53 Mutant
# How it was run: as §1
# ACHN = details: Homo sapiens
# How it was run: as §1
# SCC-25 = details: Homo sapiens, Tongue, TP53 Mutant
# How it was run: as §1
# NCI-H2081 = details: Homo sapiens, Lung, TP53 Wild type
# How it was run: as §1
# NCI-H1703 = details: Homo sapiens, Lung, TP53 Mutant
# How it was run: as §1
# SK-OV-3 = details: Homo sapiens, Ovary, TP53 Mutant
# How it was run: as §1
# COLO 201 = details: Homo sapiens, Intestine, large, colon, TP53 Mutant
# How it was run: as §1
# HEC-151 = details: Homo sapiens, Uterus, TP53 Mutant
# How it was run: as §1
# MKN-28 = details: Homo sapiens, Stomach, TP53 Mutant
# How it was run: as §1
# HEL = details: Homo sapiens, Lymphocyte, peripheral blood, TP53 Mutant
# How it was run: as §1
# NCI-H1755 = details: Homo sapiens, Lung, TP53 Mutant
# How it was run: as §1
# HCC1500 = details: Homo sapiens, Breast, mammary gland, TP53 Wild type
# How it was run: as §1
# Hep3B = details: Homo sapiens, Liver, TP53 Mutant
# How it was run: as §1
# Hs 766T = details: Homo sapiens, Hs766T, Pancreas, TP53 Mutant
# How it was run: as §1
# LoVo = details: Homo sapiens, Intestine, large, colon, TP53 Wild type
# How it was run: as §1
# TT = details: Homo sapiens, Thyroid gland, TP53 Wild type
# How it was run: as §1
# BFTC-905 = details: Homo sapiens, Urinary, bladder, TP53 Mutant
# How it was run: as §1
# BxPC-3 = details: Homo sapiens, Pancreas, TP53 Mutant
# How it was run: as §1
# SW1417 = details: Homo sapiens, Intestine, large, colon, TP53 Mutant
# How it was run: as §1
# SK-BR-3 = details: Homo sapiens, Pleura, TP53 Mutant
# How it was run: as §1
# SW780 = details: Homo sapiens
# How it was run: as §1
# U-87 MG = details: Homo sapiens
# How it was run: as §1
# NCI-H838 = details: Homo sapiens, Lung, TP53 Mutant
# How it was run: as §1
# 5637 = details: Homo sapiens, Urinary, bladder, TP53 Mutant
# How it was run: as §1
# KYSE-520 = details: Homo sapiens, Esophagus, TP53 Mutant
# How it was run: as §1
compound,measurement,setting,value
CCOc1cc(C(C)(C)C)ccc1C1=N[C@@](C)(c2ccc(Cl)cc2)[C@@](C)(c2ccc(Cl)cc2)N1C(=O)N1CCN(CCCS(C)(=O)=O)CC1 [COMPOUND A],IC50,MKN-1,15 µM
same,IC50,KYSE-150,3 µM
same,IC50,PC-13,14 µM
same,IC50,NCI-H508,1.2 µM
same,IC50,NCCIT,11 µM
same,IC50,"NCI-H28; NCI-H28, NCI-H28, Mesothelioma, TP53 Wild type",0.46 µM
same,IC50,"NCI-H28; NCI-H28, NCI-H28 cells",0.5 µM
same,IC50,HCC1954,12 µM
same,IC50,KARPAS-299,19 µM
same,IC50,NCI-H1666,13 µM
same,IC50,NCI-H1944,7 µM
same,IC50,KMS-34,9.8 µM
same,IC50,NCI-H1650,10 µM
same,IC50,NCI-H661,11 µM
same,IC50,ACHN; ACHN cells,0.3 µM
same,IC50,"ACHN; Kidney, TP53 Wild type",0.29 µM
same,IC50,SCC-25,9.4 µM
same,IC50,NCI-H2081,17 µM
same,IC50,NCI-H1703,9.1 µM
same,IC50,SK-OV-3,17 µM
same,IC50,COLO 201,10 µM
same,IC50,HEC-151,2.2 µM
same,IC50,MKN-28,8.1 µM
same,IC50,HEL,17 µM
same,IC50,NCI-H1755,7.8 µM
same,IC50,HCC1500,1 µM
same,IC50,Hep3B,6.7 µM
same,IC50,Hs 766T,17 µM
same,IC50,LoVo,1.3 µM
same,IC50,TT,2 µM
same,IC50,BFTC-905,19 µM
same,IC50,BxPC-3,18 µM
same,IC50,SW1417,9.9 µM
same,IC50,SK-BR-3,21 µM
same,IC50,"SW780; SW780, SW780, Urinary, bladder, TP53 Wild type",0.97 µM
same,IC50,"SW780; SW780, SW780 cells",1 µM
same,IC50,"U-87 MG; Brain, TP53 Wild type",0.18 µM
same,IC50,U-87 MG; U-87 MG cells,0.2 µM
same,IC50,NCI-H838,14 µM
same,IC50,5637,8.5 µM
same,IC50,KYSE-520,10 µM
